The record followed here is US20180201594A1, “Compound pac-1 or salt thereof and pharmaceutical composition comprising same” (priority 2015, published 2018).

One data set concerns XIAP. In words: XIAP protein expression in HGC-27 cells (immunofluorescence). It is filed as cell-based. The note with it: n = 6. How it is done: The sterilized cell transfer membrane was taken and placed into a 24-well plate, which was seeded with 1 mL (1×10^5 cells/mL) cell suspension, and cultured for 24 h. Drug-containing medium was added, The negative control groups and administration groups were set, with the experimental groups intervened for 24-48 h. The plate was washed with PBS, and fixed with 4% paraformaldehyde for 15 min. It was treated with 0.1% TritonX-100, and washed with PBS, blocked with 1:10 diluted normal serum blocking solution for 15 min. The plate was added 1:100 diluted primary antibody, placed at 4° C. overnight. The plate was washed with PBS, to which 1:100 diluted secondary antibodies was added and incubated at room temperature for 30 min. The plate was washed with PBS, to which 1:100 diluted SABC-FITC was added, and re-incubated at room temperature for additional 30 min. The unbound FITC was washed with PBS. We observed and taken pictures under fluorescence microscope, and analyzed the fluorescence intensity by Bioflux Montage software. 6 fields were selected randomly under microscope for each group and the integral optical density value of cells was calculated.

The subject of data set [1] is HGC-27, K562/A02, A549, HT-1080 cells. In words: Tumor cell proliferation (MTT or CCK-8). It is filed as cell-based, human. The note with it: 48 h, FIG. 5-8. An excerpt:
Experimental cells: gastric cancer cell line HGC-27, non-small cell lung cancer A549, human chronic myeloid leukemia cells doxorubicin resistant strains K562/A02, human fibrosarcoma HT-1080, human chronic myeloid leukemia cell K562.
Experimental materials: PAC-1 needle crystal (prepared according to the method described in Quinn P. Peterson et al., J. Med. Chem. 2009, 52, 5721-5731), MTT solution (Amresco specification: 1 g, batch number: 2035B358), DMSO (Analytical Pure, Beijing Chemical Factory), 96-well plates (Corning), CCK-8 (Japanese Tongren Chemical Research Institute, specification: 500test, batch number: DJ706), fetal bovine serum was the product from the United States GIBCO, batch number: 608759, RPMI-1640 is the product of Hyclone, batch number: NWK0492, 0.25% Trypsin-EDTA is the product from the United States GIBCO company, batch number: 10T774768, DMSO: USA Sigma Corporation.
The cells in logarithmic growth phase were collected. The cells was digested and the cell density was adjusted into 1-5×10^5 cells/mL, 100 μL per well in 96-well culture plate. The plated was cultured in a incubator with 37 ? , 5% CO2 saturated humidity. After adherent, different concentrations of PAC-1 and ZYS-1 were added for dosing groups. 6 dosage groups were set, with at least three parallel wells set in each group. […]

A further data set relates to HT-1080 cells. In words: HT-1080 cell invasion (Transwell, matrigel). It is filed as cell-based, human. The method, then:
The matrigel was thawed at 4° C. overnight and diluted with serum-free medium precooled at 4° ? t 1:2. 30 μL of the diluted matrigel was added vertically in the center of the bottom of the upper chamber, allowed to stand at r.m. for 20 min, and then incubated at 37° C. for 60 min. It was observed under the microscope until gelling, hydrated with the serum-free medium for use. The treated tumor cells with drugs for 48 h were digested and collected, and then the cells were suspended with serum free medium. The cell intensity was adjusted into 2.5×10^5 cells/mL, and kept cultured in the incubator for another 24 h. The upper chamber was taken, with methanol fixation for 30 min, dyed with Giemsa stain for 30 min, rinsed with clean water twice. The cells on the bottom membrane surface of the upper chamber were carefully wiped off with a wet cotton swab, dried in the air. With the bottom up, they were transferred onto glass slide and sealed with neutral gum. Under the microscope, nine random fields were taken and the transmembrane cells therein were counted. The average values were statistically calculated.

The nature of data set [2]: Solubility comparison of ZYS-1 and PAC-1 needle crystal (HPLC). It is filed as physicochemical. The note with it: room temperature. How it is done: The appropriate amounts of ZYS-1 and PAC-1 needle crystal were dissolved into the appropriate amount of methanol, absolute ethanol, 95% ethanol, acetonitrile, ethyl ether, ethyl acetate, propanol, acetone, respectively, and sonicated for 1 hour, then left at room temperature for 24 hours to obtain the oversaturated solution. After centrifugation at 4000 r/min for 5 min, the supernatant was diluted appropriately and filtered through a 0.45 μm needle filter. The concentration was determined by HPLC and the solubility was calculated.

In general, Solubility refers to the dissolved amount per volume that the medium holds. Low readings indicate little dissolved substance, high ones much dissolved substance.

Converted amounts (≈) assume the structure as drawn.

With `C=CCc1cccc(/C=N/NC(=O)CN2CCN(Cc3ccccc3)CC2)c1O` [ZYS-1, 1-Piperazineacetic acid, 4-(phenylmethyl)-2-[[2-hydroxy-3-(2-propen-1-yl)phenyl]methylene]], the “XIAP protein expression (integral optical density value)” value in the data set with XIAP (4 μM) turned out to be 38.22 ± 0.81; in the data set on XIAP (8 μM), 36.27 ± 1.03. Also, the “antitumor efficacy (cell proliferation) compared with PAC-1 needle crystal” value in data set [1] is “stronger antitumor efficacy than PAC-1 needle crystal”. Also, the “numbers of invasive cells” value with HT-1080 cells (2 μM and 4 μM administration groups) was “smaller than those from the control group”; in the data set on HT-1080 cells (8 μM administration group), “No cell from 8 μM administration group invaded into the lower chamber”. Besides, the Solubility in data set [2] (95% ethanol) is 18.51 mg/mL (≈ 47.2 mM); in data set [2] (Absolute ethanol) it was 23.53 mg/mL (≈ 59.9 mM); in data set [2] (Acetone) it was 128.97 mg/mL (≈ 329 mM); in data set [2] (Acetonitrile) it was 28.74 mg/mL (≈ 73.2 mM); in data set [2] (Chloroform), 344.73 mg/mL (≈ 878 mM); in data set [2] (Diethyl ether) it was 6.31 mg/mL (≈ 16.1 mM). Moreover, the results for the Solubility in data set [2] (Ethyl acetate), in data set [2] (Methanol) and in data set [2] (Propanol) were 40.08 mg/mL (≈ 102 mM), 35.15 mg/mL (≈ 89.6 mM) and 25.55 mg/mL (≈ 65.1 mM), respectively.
